The target of test [1] is T1, RXFP3 (relaxin-3 receptor; GPCR135; SALPR) (Homo sapiens, UniProt Q9NSD7).
T1 construct: cloned human RXFP3 receptor, stably expressed in HEK-293 cells with GqI5; with Relaxin-3NH2 (amidated orthosteric agonist; also R3/I5NH2)
T1 sequence (Q9NSD7 1-469): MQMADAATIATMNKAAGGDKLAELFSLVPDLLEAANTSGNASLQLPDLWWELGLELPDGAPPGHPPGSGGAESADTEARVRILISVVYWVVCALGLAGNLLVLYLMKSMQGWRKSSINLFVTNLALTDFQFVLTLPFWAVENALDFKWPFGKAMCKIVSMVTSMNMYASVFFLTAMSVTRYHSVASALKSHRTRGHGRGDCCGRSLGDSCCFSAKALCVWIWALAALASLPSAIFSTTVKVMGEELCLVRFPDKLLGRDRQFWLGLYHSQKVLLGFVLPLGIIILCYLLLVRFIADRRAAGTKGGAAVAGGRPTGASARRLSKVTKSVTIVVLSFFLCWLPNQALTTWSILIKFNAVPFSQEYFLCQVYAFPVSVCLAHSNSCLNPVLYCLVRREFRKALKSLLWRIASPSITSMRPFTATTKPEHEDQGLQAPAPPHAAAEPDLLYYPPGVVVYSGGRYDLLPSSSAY
Description: Ca2+ mobilization (FLIPR) agonist curve shift, allosteric ternary complex model; also increased […]R3/I5NH2 binding in membranes. Format: cell-based. In general terms: Calcium flux is commonly read through the fluorescence of an indicator in the cells.

Test [2] addresses T2, dopamine transporter (Homo sapiens, UniProt Q01959).
T2 construct: gene SLC6A3
Briefly: radioligand binding selectivity panel (CEREP/in house), single concentration.

Test [3] has as its target T3, norepinephrine transporter (Homo sapiens, UniProt P23975).
T3 construct: gene SLC6A2
Described as above.

Test [4] has as its target T4, serotonin 5-HT1A (Homo sapiens, UniProt P08908).
T4 construct: gene HTR1A
T4 sequence (P08908 1-422): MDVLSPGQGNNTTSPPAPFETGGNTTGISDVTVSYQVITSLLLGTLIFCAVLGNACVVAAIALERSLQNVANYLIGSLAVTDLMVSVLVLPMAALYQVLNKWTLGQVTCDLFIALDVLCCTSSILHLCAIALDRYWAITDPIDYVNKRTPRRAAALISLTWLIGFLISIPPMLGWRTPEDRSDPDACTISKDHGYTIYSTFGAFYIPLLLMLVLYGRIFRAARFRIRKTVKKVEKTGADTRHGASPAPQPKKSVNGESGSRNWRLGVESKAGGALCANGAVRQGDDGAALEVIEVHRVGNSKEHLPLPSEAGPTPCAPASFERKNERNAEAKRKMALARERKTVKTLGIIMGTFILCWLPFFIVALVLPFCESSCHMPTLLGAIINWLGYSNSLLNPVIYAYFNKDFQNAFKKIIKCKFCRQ
Described as above.

T3 sequence (P23975 whole entry): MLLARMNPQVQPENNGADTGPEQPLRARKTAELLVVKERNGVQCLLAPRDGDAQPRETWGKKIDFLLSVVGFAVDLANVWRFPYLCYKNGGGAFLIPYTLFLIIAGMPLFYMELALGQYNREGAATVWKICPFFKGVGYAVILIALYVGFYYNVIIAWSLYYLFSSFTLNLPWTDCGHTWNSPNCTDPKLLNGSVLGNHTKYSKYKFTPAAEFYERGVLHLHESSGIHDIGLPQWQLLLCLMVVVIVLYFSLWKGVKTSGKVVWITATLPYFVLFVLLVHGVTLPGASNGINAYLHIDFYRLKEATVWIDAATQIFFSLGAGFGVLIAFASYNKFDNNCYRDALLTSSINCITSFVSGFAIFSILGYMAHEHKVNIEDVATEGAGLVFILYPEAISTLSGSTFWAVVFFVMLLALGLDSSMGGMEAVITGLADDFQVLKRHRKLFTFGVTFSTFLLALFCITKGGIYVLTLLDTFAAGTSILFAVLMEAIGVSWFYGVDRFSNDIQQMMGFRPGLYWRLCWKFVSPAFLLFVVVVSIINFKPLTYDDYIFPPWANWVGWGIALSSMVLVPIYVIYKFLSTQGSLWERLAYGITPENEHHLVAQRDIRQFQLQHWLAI
T2 sequence (Q01959 whole entry): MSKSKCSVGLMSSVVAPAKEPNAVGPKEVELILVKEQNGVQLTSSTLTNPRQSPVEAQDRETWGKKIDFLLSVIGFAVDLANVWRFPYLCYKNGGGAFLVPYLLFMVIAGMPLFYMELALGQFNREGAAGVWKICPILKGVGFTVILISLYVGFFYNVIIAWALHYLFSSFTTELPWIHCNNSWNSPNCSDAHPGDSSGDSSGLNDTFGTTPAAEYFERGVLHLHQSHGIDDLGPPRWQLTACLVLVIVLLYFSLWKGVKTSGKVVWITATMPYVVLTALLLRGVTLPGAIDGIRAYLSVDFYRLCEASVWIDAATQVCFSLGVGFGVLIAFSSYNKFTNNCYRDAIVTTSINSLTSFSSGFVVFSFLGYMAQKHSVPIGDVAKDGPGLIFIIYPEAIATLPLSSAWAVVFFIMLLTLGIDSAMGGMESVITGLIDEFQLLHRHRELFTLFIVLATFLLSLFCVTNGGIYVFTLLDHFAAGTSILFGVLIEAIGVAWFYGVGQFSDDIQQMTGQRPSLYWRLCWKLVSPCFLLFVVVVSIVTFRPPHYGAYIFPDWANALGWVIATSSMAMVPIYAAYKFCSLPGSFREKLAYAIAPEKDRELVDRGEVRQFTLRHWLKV

On to `COc1ccc2[nH]cc(CCN(Cc3ccc(Cl)c(Cl)c3)C(=O)Nc3cc(C(F)(F)F)cc(C(F)(F)F)c3)c2c1` [135PAM1, 3-[3,5-Bis(trifluoromethyl)phenyl]-1-(3,4-dichlorobenzyl)-1-[2-(5-methoxy-1H-indol-3-yl)ethyl]urea], for which, in test [1], the Kb is 355 nM. The inhibition (in general, how much of the control response was suppressed) at 10 µM in test [2] is 83%; in test [3], 59%; in test [4] it was 74%.

Values taken from article PMC3274524, “In Vitro Pharmacological Characterization of RXFP3 Allosterism: An Example of Probe Dependency” (PLoS ONE, 2012).
